In patent US7777049B2, “Crystalline forms of Rizatriptan benzoate” (ratiopharm GmbH, priority 2004, dated 2010):

Assay: Suspension equilibration of a Form A / Form B mixture in ethyl acetate, product identified by X-ray powder diffraction
Assay type: physicochemical
Details: 7 mg Form A and 7 mg Form B suspended in 1 ml ethyl acetate, stirred 16 hours at 25° C.; Form A obtained by XRPD
Experimental: 7 mg rizatriptan benzoate Form A and 7 mg Form B are suspended in 1 ml ethyl acetate, and stirred 16 hours at 25° C. After filtration, a white powder is obtained.
X-ray powder diffraction measurements were performed on a Philips 1710 powder X-ray diffractometer using Cu Kα radiation (Cu Kα1=1.54060 Å). The X-ray source is operated at 45 kV and 45 mA. Spectra are recorded at a step size of 0.02° with a counting time of 2.4 seconds per step. The accuracy of the 2 theta values of conventionally recorded powder X-ray diffraction patterns is generally ±0.1-0.2°. For sample preparation, about 40 mg of substance was prepared into circular shaped quartz sample holders of 0.5 mm depth and 10 mm width.

SMILES | relative thermodynamic stability of the crystalline form
CN(C)CCc1c[nH]c2ccc(Cn3cncn3)cc12 [Form A, N,N-dimethyl-5-(1H-1,2,4-triazol-1-ylmethyl)-1H-indole-3-ethanamine benzoate] | thermodynamically most stable form
CN(C)CCc1c[nH]c2ccc(Cn3cncn3)cc12 [Form B, N,N-dimethyl-5-(1H-1,2,4-triazol-1-ylmethyl)-1H-indole-3-ethanamine benzoate] | metastable form
